The values below come from patent publication US20110151020A1, “ACTIVE SUBSTANCE COMBINATION WITH GEMCITABINE FOR THE TREATMENT OF EPITHELIAL CANCER” (priority 2008, published 2011).

SMILES strings stand for the structures.

Test [1] relates to primary human pancreatic cancer cells. Briefly: CSC content by flow cytometry in primary pancreatic cancer cells from patients. In kind it is cell-based. Particulars: freshly isolated primary pancreatic cancer cells. The protocol:
The findings from Examples 1.1 and 1.2 in tumour cell lines were reproduced in primary patient tissue with viability tested with propidium iodide (FIGS. 4A-4D).
The findings from Examples 2.1 in tumour cell lines were reproduced in fresh primary tumour cells from patients with pancreatic cancer with viability tested with propidium iodide (FIGS. 13A-13D). In vitro treatment with the combined therapy of 100 ng/ml Gemcitabine and 5 μM SB431542 led to the elimination of CD 133^+ cancer stem cells.
Primary human pancreatic cancer cells. Human pancreatic cancers were obtained with written informed consent from all patients. Tissue fragments were minced with scissors into small (1-2 mm^3) fragments. Enzymatic digestion was performed using a mixture of DMEM medium and collagenase (Stem Cell Technologies, Vancouver, Canada) for 90 min at 37° C. (Hermann et al., 2007, supra).
Cytometry. Pancreatic CSC were identified by CD133/1-APC or CD133-PE (Miltenyi, Bergisch-Gladbach, Germany) (Hermann et al., 2007, supra). Side population experiments were performed as described by Goodell et al. (1996) (see Goodell et al., 1996, J Exp Med 183, 1797-1806) and cells were identified by exclusion of the vital dye Hoechst 33342. […]

Test [2] relates to L3.6pl pancreatic cancer cells. As to the kind of experiment: Tumorigenicity after in vitro pre-treatment and orthotopic implantation. In kind it is in vivo, mice. The procedure:
After 96 hours of pretreatment, the remaining viable cells were orthotopically implanted into the pancreas of mice, which received no further treatment in vivo.
Cultivated pancreatic cancer cells were exposed to either Gemcitabine alone representing clinical standard therapy, SB431542 alone, or a combination of Gemcitabine and SB431542 in the above given respective concentrations. After 96 hours of pretreatment, the remaining viable cells were orthotopically implanted into the pancreas of mice, which received no further treatment in vivo.
A prerequisite of CSC is their ability to form tumours in secondary recipients. Due to the limited number of cancer (stem) cells that can be obtained from primary tissues, it is virtually impossible to reproducibly perform in vivo treatment experiments with fresh patient-derived cells. Therefore, all subsequent in vivo experiments were performed with the established L3.6pl pancreatic cancer cells. The design of the experiment is illustrated in FIG. 20A. […] After 4 days of pretreatment, the surviving cells were orthotopically implanted into the pancreas, which received no further in vivo treatment. Tumorigenicity was first determined by PET scans on day 30 (FIGS. 20B, 20C; left panel) and by final macroscopic and microscopic histological evaluation on day 35 (FIGS. 20B, 20C; right panel).
Animals and Orthotopic Implantation of Tumour Cells. Single-cell suspensions were orthotopically implanted into the pancreas of female NMRI nu/nu mice (Janvier, Le Genest-Saint-Isle, France) (Hermann et al., 2007, supra). Size and weight of the pancreatic tumours were monitored.
In vitro treatment of pancreatic cancer cells. […] For the evaluation of the in vivo tumorigenicity, […] L3.6pl cells were pretreated with the respective regimen and the remaining viable cells were orthotopically implanted into the pancreas of nude mice and evaluated on day 35. For the systemic infusion assay, cells were labelled with the Qtracker 800 labelling kit (Invitrogen) according to the manufacturer's instructions, and 5×10^5 cells were injected intravenously into mice. After 4 weeks, explanted lungs were scanned for metastases with a near-infrared imaging platform (Odyssey, Li-cor, Lincoln, Nebr.). Positive signals were verified by histology (H&E staining).

`Nc1ccn(C2OC(CO)C(O)C2(F)F)c(=O)n1` (stereo not drawn) [Gemcitabine, 4-amino-1-[3,3-difluoro-4-hydroxy-5-(hydroxymethyl)tetrahydrofuran-2-yl]-1H-pyrimidin-2-one]: the “CSC fraction (CD133+ and CD24+CD44+EpCAM+ populations)” value in test [1] is recorded as “tended to relatively enrich”. Besides, the “tumour take rate / tumorigenicity” value in test [2] (4 days of pretreatment, PET day 30, histology day 35) is “did not generate any effect”. In addition, in test [2] (96 hours pretreatment, 100 ng/ml Gemcitabine, 5 μM SB431542), the “tumorigenicity after in vitro pre-treatment” value is on record as “close to no effect”.
